Results from PMC12432127, “Assessing the potential of bacterial signal peptides for radiopharmaceutical applications” (Scientific Reports, 2025).
Several values for one entry are separate records, joined by “and”; a condition that tells them apart may be missing. Identical values can stand only once. Residues, ends and D or L forms follow the SMILES beside them. *: point of attachment. For = O=C*

Legend:
FPR1 = biological target: T1, FPR1 (Homo sapiens, UniProt P21462); assay: High-throughput calcium imaging (FLIPR), FPR1 transfected HEK293T cells; format: cell-based; conditions: for Calicum signal (dF/F0): FPR1-HEK
T1 construct: expressed in transfected cells; host or cells: HEK293T (transient, jetPEI)
T1 sequence (P21462 1-350): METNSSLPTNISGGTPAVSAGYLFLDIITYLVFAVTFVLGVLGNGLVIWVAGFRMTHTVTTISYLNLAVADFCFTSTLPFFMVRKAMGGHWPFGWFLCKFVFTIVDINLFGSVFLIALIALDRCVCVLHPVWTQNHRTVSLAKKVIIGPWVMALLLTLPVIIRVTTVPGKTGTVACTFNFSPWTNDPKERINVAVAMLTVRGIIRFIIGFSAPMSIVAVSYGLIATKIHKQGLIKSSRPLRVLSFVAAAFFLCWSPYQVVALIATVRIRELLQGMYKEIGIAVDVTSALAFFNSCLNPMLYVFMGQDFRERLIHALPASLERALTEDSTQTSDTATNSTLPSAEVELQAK
Description: (§1) Cell transfection was performed approximately 24 h after seeding the cells, when they reached about 70% confluence. Transfection was carried out using jetPEI™ (Polyplus) according to the following protocol: 0.25 µg DNA was diluted in 10 µL NaCl (150 mM). 0.5 µL of jetPEI™ solution in 10 µL NaCl was mixed with the DNA solution and incubated at RT for 15–30 min. After incubation, 20 µL of the jetPEI™/DNA mixture was added dropwise to the cells, which were then placed in the cell culture incubator at 37 °C and 5% CO2. After 18 to 24 h of transfection, the medium was replaced, and 100 µL per well was added, then placed back in the incubator.
(§2) Automated high-throughput Ca^2+ measurements using a fluorescence imaging plate reader (FLIPR, Molecular Devices) were performed. Briefly, […] were seeded in 96-well plates (~ 50,000 cells/well) one day before the experiments and incubated at 37 °C. HEK293T cells were co-transfected with the receptor or mock and the G protein Gα16 for 48 h. On the day of the experiments, the medium was removed, and the cells were loaded with a loading solution consisting of 2 µM Calbryte dye in C1 buffer (Calbryte 520AM, AAT Bioquest 20651) 50 µL per well, for at least 2 h at RT in the dark. After 2 h of loading with the fluorescent dye, the solution was removed, the plate was washed three times using an ELX50 washer (BioTek), and the intracellular release of calcium was measured using FLIPR. A Ca^2+ response was defined as an increase in the excitation ratio (340 nm/380 nm) that was at least four times higher than the mean baseline noise after bath application.
(§3) The results are expressed as the means ± standard deviations of the number of the indicated determinations. Calcium measurement experiments were routinely performed as triplicates and averaged over at least three independent transfections. Response amplitudes (F/F0) were calculated by dividing maximal fluorescence change after ligand application by baseline fluorescence. Maximal amplitudes were set to 100%, and curves were calculated with Graph Pad Prism Version 10.1 (GraphPad Software, Boston, MA, USA). S.D. values were calculated as averages from independently obtained EC50 values using the STDEV. Data derived from experiments were analyzed by two-way ANOVA. P < 0.05 was accepted as significant.

human FPR2 = biological target: T2, human FPR2 (Homo sapiens, UniProt P25090); assay: High-throughput calcium imaging (FLIPR), FPR2 transfected HEK293T cells; format: cell-based; conditions: read-out: EC50 Ca2+ mobilization
T2 construct: expressed in transfected cells; host or cells: HEK293T (transient, jetPEI)
T2 sequence (P25090 1-351): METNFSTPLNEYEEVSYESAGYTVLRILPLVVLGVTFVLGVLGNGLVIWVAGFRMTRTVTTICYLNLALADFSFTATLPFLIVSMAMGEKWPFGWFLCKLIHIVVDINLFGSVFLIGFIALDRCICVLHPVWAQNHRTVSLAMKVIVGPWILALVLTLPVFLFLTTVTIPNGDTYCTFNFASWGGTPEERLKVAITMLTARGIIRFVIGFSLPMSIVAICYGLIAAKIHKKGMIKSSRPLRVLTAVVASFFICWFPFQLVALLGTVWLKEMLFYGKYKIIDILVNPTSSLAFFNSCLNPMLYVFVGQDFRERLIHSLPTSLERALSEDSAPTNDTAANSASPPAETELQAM
Description: as §1
(§4) Automated high-throughput Ca^2+ measurements using a fluorescence imaging plate reader (FLIPR, Molecular Devices) were performed. […] After 2 h of loading with the fluorescent dye, the solution was removed, the plate was washed three times using an ELX50 washer (BioTek), and the intracellular release of calcium was measured using FLIPR. […]
(§5) The results are expressed as the means ± standard deviations of the number of the indicated determinations. […] Response amplitudes (F/F0) were calculated by dividing maximal fluorescence change after ligand application by baseline fluorescence. Maximal amplitudes were set to 100%, and curves were calculated with Graph Pad Prism Version 10.1 (GraphPad Software, Boston, MA, USA). […]

human FPR3 = biological target: T3, human FPR3 (Homo sapiens, UniProt P25089); assay: High-throughput calcium imaging (FLIPR), FPR3 transfected HEK293T cells; format: cell-based; conditions: up to 10 µM
T3 construct: expressed in transfected cells; host or cells: HEK293T (transient, jetPEI)
T3 sequence (P25089 1-353): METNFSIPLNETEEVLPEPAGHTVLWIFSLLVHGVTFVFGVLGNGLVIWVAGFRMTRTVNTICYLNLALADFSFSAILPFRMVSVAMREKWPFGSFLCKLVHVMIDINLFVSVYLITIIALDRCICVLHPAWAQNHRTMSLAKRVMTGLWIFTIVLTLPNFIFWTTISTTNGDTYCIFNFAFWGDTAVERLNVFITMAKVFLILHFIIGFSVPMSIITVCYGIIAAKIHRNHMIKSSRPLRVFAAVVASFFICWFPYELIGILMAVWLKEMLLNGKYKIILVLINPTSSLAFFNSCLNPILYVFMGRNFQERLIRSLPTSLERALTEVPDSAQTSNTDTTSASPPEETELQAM
Description: as §1, §4, §5

U87-MG cells = assay: Calcium imaging (FLIPR) in U87-MG cells; format: cell-based, human; conditions: for Calicum signal (dF/F0): U87 cells
Description: as §2, §3

[1] = Log Concentration (M) -6,5, single replicate values
[2] = Log Concentration (M) -6, single replicate values
[3] = Log Concentration (M) -7,5, single replicate values
[4] = Log Concentration (M) -7, single replicate values
[5] = Log Concentration (M) -8,5, single replicate values
[6] = Log Concentration (M) -8, single replicate values
[7] = Log Concentration (M) -9, single replicate values

## CC[C@H](C)[C@H](NC(=O)[C@H](CCCCN)NC(=O)[C@@H](NC(=O)[C@@H]1CCCN1C(=O)[C@@H](NC(=O)[C@H](CCSC)NC=O)C(C)C)[C@@H](C)CC)C(=O)O [f-MVPIKI] (For-MVPIKI-OH; C-terminus assumed)
FPR1; [1]
  Calicum signal (dF/F0): 0,85 (2×) and 0,92
FPR1; [2]
  Calicum signal (dF/F0): 0,75 and 0,94 and 0,85
FPR1; [3]
  Calicum signal (dF/F0): 0,71 and 0,77 and 0,68
FPR1; [4]
  Calicum signal (dF/F0): 0,57 and 0,86 and 0,73
FPR1; [5]
  Calicum signal (dF/F0): 0,27 and 0,32 and 0,34
FPR1; [6]
  Calicum signal (dF/F0): 0,65 and 0,63 and 0,6
FPR1; [7]
  Calicum signal (dF/F0): 0,18 and 0,24 and 0,22
FPR1; FPR1 transfected HEK293T cells, peak calcium response, read-out: EC50 Ca2+ mobilization
  EC50: 4.3 ± 2.4 nM
FPR1; FPR1 vs FPR2
  preference for FPR1 over FPR2 (calcium EC50): approximately 14 fold
Human FPR2
  EC50: 60 ± 0.76 nM
Human FPR3
  activation of FPR3 (calcium): did not activate FPR3 at any tested concentration
U87-MG cells; U87-MG cells, read-out: EC50 Ca2+ flux
  EC50: 5.3 ± 2.4 nM
U87-MG cells; [1]
  Calicum signal (dF/F0): 1,19 (2×) and 0,99 and 1,7 and 1,4
U87-MG cells; [2]
  Calicum signal (dF/F0): 1,22 and 1,13 and 1,2 and 1,14 and 1,1
U87-MG cells; [3]
  Calicum signal (dF/F0): 1 and 0,95 and 0,98 and 1,12 and 1,1
U87-MG cells; [4]
  Calicum signal (dF/F0): 1 and 1,1 and 1,2 and 1,18 and 0,99
U87-MG cells; [5]
  Calicum signal (dF/F0): 0,66 (2×) and 0,69 and 0,6 and 0,47
U87-MG cells; [6]
  Calicum signal (dF/F0): 0,9 and 0,98 and 0,94 and 1,3 and 1,07
U87-MG cells; Log Concentration (M) -9,5, single replicate values
  Calicum signal (dF/F0): 0,01 and 0,08 and 0,09 and 0,1 and 0,3
U87-MG cells; [7]
  Calicum signal (dF/F0): 0,14 and 0,23 and 0,2 and 0,12 and 0,38
